Data as given in article PMC4554599 (Bipolar disorders, 2014).

Assays:
[1] = target: T1, acyl-CoA synthetase-4 (Acsl4) (Rattus norvegicus, UniProt O35547); format: biochemical
[2] = target: T1, acyl-CoA synthetase-4 (Acsl4); test: Michaelis-Menten kinetics, […]AA to AA-CoA conversion; format: biochemical

T1 sequence (O35547 whole entry): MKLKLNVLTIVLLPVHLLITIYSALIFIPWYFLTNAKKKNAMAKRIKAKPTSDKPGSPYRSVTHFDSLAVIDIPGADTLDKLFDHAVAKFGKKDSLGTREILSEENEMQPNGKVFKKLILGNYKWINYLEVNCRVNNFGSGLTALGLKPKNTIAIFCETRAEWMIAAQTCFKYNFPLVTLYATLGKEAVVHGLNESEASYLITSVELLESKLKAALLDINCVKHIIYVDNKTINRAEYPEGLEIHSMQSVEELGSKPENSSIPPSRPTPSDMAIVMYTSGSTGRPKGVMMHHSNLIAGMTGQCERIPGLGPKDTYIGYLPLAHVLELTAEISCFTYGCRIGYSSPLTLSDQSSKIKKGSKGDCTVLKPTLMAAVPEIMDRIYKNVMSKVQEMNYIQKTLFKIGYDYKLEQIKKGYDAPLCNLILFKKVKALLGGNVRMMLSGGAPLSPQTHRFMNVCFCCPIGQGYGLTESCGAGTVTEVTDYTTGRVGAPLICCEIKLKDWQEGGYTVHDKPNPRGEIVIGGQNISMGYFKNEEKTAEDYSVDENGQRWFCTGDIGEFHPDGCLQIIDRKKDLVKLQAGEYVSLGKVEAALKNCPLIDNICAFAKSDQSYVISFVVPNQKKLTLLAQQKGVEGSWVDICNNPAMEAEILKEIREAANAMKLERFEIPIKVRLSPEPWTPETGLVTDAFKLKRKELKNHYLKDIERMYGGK

| Ki [1] [mM] | SMILES | Km [2] [µM] |
| --- | --- | --- |
| 6.38 ± 0.63 | CCC(C)C(CC)C(N)=O (racemic) [VCD, 2-ethyl-3-methyl pentanamide] | – |
| – | CCCCC/C=C\C/C=C\C/C=C\C/C=C\CCCC(=O)O [AA, arachidonic acid] | 4.63 ± 0.67 |
